Assay: Fluorescence of control wells containing enzyme substrate in LB broth without spores
Type: physicochemical
Conditions: substrate 0.3 mg/mL, 60° C.
Description: Luria-Bertani (LB) broth was prepared by dissolving tryptone (10 g/L), yeast extract (5 g/L), and NaCl (5 g/L) in deionized water. In the examples, 6′-fluoro-4′-methylumbelliferyl α-D-glucopyranoside (0.3 mg/mL) or 5′-fluoro-4′-methylumbelliferyl α-D-glucopyranoside (0.3 mg/mL) was added to the broth. In the comparative examples, 4′-methylumbelliferyl α-D-glucopyranoside (MUG) (0.3 mg/mL) or 6′,8′-Difluoro-4′-methylumbelliferyl α-D-glucopyranoside (0.3 mg/mL) was added to the broth. The pH of the broth was adjusted to either pH 6, pH 7, pH 8, or pH 9 using 0.1 N hydrochloric acid or 1N sodium hydroxide solutions. The broth was passed through a 0.22 micron filter prior to use.
LB broth (pH 6) containing 6′-fluoro-4′-methylumbelliferyl α-D-glucopyranoside (0.3 mg/mL) (enzyme substrate of Example 1) was added to two wells (100 microliters per well) of a black 96-well microtiter plate with optically clear, flat bottom wells (NUNC #165301, Thermo Fisher Scientific, Waltham, MA). A 5 microliter aqueous suspension containing 5×10^6 Geobacillus stearothermophilus spores (ATCC 7953) was added to each well of the microtiter plate. Next, the contents of each well were mixed using a multiple aspiration/delivery sequence with the pipet. […] The top of the plate was covered with an optically clear sealing film (product #4311971, Applied Biosystems Corporation, Foster City, CA). The plate was warmed at 60° C. and shaken in a linear direction. Fluorescence readings (360 nm excitation/450 nm emission at 50% gain) were taken from the bottom of the plate. A reading was taken at an initial time point of 10 seconds and then at +1 minute intervals thereafter. A Synergy Neo2 fluorescence plate reader (BioTek Company, Winooski, VT) was used. In Table 1, the mean fluorescence values detected (RFU) at times of 10 seconds, +5 minutes, +10 minutes, and +30 minutes are reported. The mean fluorescence values detected for the control wells were 978 RFU at 10 seconds; 920 RFU at +5 minutes; 870 RFU at +10 minutes, and 746 RFU at +30 minutes.
LB broth (pH 7) containing 6′-fluoro-4′-methylumbelliferyl α-D-glucopyranoside (0.3 mg/mL) (enzyme substrate of Example 1) was added to two wells (100 microliters per well) of a black 96-well microtiter plate with optically clear, flat bottom wells (NUNC #165301, Thermo Fisher Scientific). A 5 microliter aqueous suspension containing 5×10^6 Geobacillus stearothermophilus spores (ATCC 7953) was added to each well of the microtiter plate. Next, the contents of each well were mixed using a multiple aspiration/delivery sequence with the pipet. […] The top of the plate was covered with an optically clear sealing film (product #4311971, Applied Biosystems Corporation). The plate was warmed at 60° C. and shaken in a linear direction. Fluorescence readings (360 nm excitation/450 nm emission at 50% gain) were taken from the bottom of the plate. A reading was taken at an initial time point of 10 seconds and then at +1 minute intervals thereafter. A Synergy Neo2 fluorescence plate reader (BioTek Company) was used. In Table 2, the mean fluorescence values detected (RFU) at times of 10 seconds, +5 minutes, +10 minutes, and +30 minutes are reported. The mean fluorescence values detected for the control wells were 989 RFU at 10 seconds; 936 RFU at +5 minutes; 895 RFU at +10 minutes, and 763 RFU at +30 minutes.
LB broth (pH 8) containing 6′-fluoro-4′-methylumbelliferyl α-D-glucopyranoside (0.3 mg/mL) (enzyme substrate of Example 1) was added to two wells (100 microliters per well) of a black 96-well microtiter plate with optically clear, flat bottom wells (NUNC #165301, Thermo Fisher Scientific). A 5 microliter aqueous suspension containing 5×10^6 Geobacillus stearothermophilus spores (ATCC 7953) was added to each well of the microtiter plate. Next, the contents of each well were mixed using a multiple aspiration/delivery sequence with the pipet. […]

Row | mean fluorescence values detected for the control wells (pH 6 LB broth, 10 seconds) | mean fluorescence values detected for the control wells (pH 6 LB broth, +5 minutes) | mean fluorescence values detected for the control wells (pH 6 LB broth, +10 minutes) | mean fluorescence values detected for the control wells (pH 6 LB broth, +30 minutes) | mean fluorescence values detected for the control wells (pH 7 LB broth, 10 seconds) | mean fluorescence values detected for the control wells (pH 7 LB broth, +5 minutes) | mean fluorescence values detected for the control wells (pH 7 LB broth, +10 minutes) | mean fluorescence values detected for the control wells (pH 7 LB broth, +30 minutes) | mean fluorescence values detected for the control wells (pH 8 LB broth, 10 seconds) | mean fluorescence values detected for the control wells (pH 8 LB broth, +5 minutes) | mean fluorescence values detected for the control wells (pH 8 LB broth, +10 minutes) | mean fluorescence values detected for the control wells (pH 8 LB broth, +30 minutes) | mean fluorescence values detected for the control wells (pH 9 LB broth, 10 seconds) | mean fluorescence values detected for the control wells (pH 9 LB broth, +5 minutes) | mean fluorescence values detected for the control wells (pH 9 LB broth, +10 minutes) | mean fluorescence values detected for the control wells (pH 9 LB broth, +30 minutes) | SMILES
1 | 1,768 RFU | 1,750 RFU | 1,743 RFU | 1,805 RFU | 1,536 RFU | 1,519 RFU | 1,508 RFU | 1,439 RFU | 2,547 RFU | 2,601 RFU | 2,666 RFU | 3,020 RFU | 1,381 RFU | 1,397 RFU | 1,496 RFU | 2,521 RFU | Cc1cc(=O)oc2c(F)c(O[C@H]3O[C@H](CO)[C@@H](O)[C@H](O)[C@H]3O)c(F)cc12 [Comparative Example A, 6′,8′-Difluoro-4′-methylumbelliferyl α-D-glucopyranoside]
2 | 868 RFU | 802 RFU | 756 RFU | 656 RFU | 722 RFU | 670 RFU | 636 RFU | 557 RFU | 628 RFU | 569 RFU | 535 RFU | 463 RFU | 494 RFU | 436 RFU | 406 RFU | 338 RFU | Cc1cc(=O)oc2cc(O[C@H]3O[C@H](CO)[C@@H](O)[C@H](O)[C@H]3O)ccc12 [MUG, 4′-methylumbelliferyl-α-D-glucopyranoside]
3 | 828 RFU | 784 RFU | 738 RFU | 622 RFU | 720 RFU | 679 RFU | 646 RFU | 547 RFU | 616 RFU | 573 RFU | 538 RFU | 455 RFU | 501 RFU | 449 RFU | 421 RFU | 365 RFU | Cc1cc(=O)oc2cc(O[C@H]3O[C@H](CO)[C@@H](O)[C@H](O)[C@H]3O)cc(F)c12 [Example 2, 5′-Fluoro-4′-methylumbelliferyl α-D-glucopyranoside]
4 | 978 RFU | 920 RFU | 870 RFU | 746 RFU | 989 RFU | 936 RFU | 895 RFU | 763 RFU | 940 RFU | 884 RFU | 845 RFU | 723 RFU | 825 RFU | 772 RFU | 738 RFU | 633 RFU | Cc1cc(=O)oc2cc(O[C@H]3O[C@H](CO)[C@@H](O)[C@H](O)[C@H]3O)c(F)cc12 [Example 1, 6′-Fluoro-4′-methylumbelliferyl α-D-glucopyranoside]

From US12123048B2, “Fluorinated 4′-alkylumbelliferyl a-D-glucopyranosides, biological sterilization indicators including the same and methods of using the same” (3M INNOVATIVE PROPERTIES COMPANY, priority 2018, dated 2024)
